# Target: T1, KRAS G12C (Homo sapiens, UniProt P01116, G12C)
# T1 construct: KRAS G12C (amino acid region: 1-169)
# Experiment: Inhibitory activity on the KRAS G12C nucleotide (GDP-GTP) exchange reaction
# Format: biochemical
# Settings: Bodipy FL GDP-bound KRAS G12C 25 nM; preincubation at 25° C. for 4 hours; SOS1 100 nM, GppNHp 1 μM, reaction for 30 minutes
# Outline: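 Bodipy FL-GDP-loaded KRAS G12C (aa 1-169, 25 nM) preincubated with compound 4 h at 25 °C in pH 7.5 Tris buffer, 5% DMSO; exchange started with SOS1 (aa 564-1049, 100 nM) and 1 μM GppNHp for 30 min. Fluorescence change (ex 485/em 520 nm) normalized to DMSO and no-GppNHp controls; IC50 calculated.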
# T1 sequence (P01116 1-169 isoform P01116-2 G12C): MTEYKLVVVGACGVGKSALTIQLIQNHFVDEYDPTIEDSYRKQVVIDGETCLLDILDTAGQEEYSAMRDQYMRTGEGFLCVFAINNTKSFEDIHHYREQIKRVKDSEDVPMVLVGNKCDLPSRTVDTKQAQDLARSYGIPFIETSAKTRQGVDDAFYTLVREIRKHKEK
row,Structure (SMILES),IC50
1,"C=CC(=O)N1CC[C@@H](NC(=O)c2c(F)nc(CNc3n[nH]c4cc(Cl)c(C(C)(C)C)cc34)n2C)C1 [Example 72, (R)-N-(1-acryloylpyrrolidin-3-yl)-2-(((5-(tert-butyl)-6-chloro-1H-indazol-3-yl)amino)methyl)-4-fluoro-1-methyl-1H-imidazole-5-carboxamide]",0.071 µM
2,"C=CC(=O)N1CC(NC(=O)c2cnc(CNc3n[nH]c4cc(Cl)c(C(C)(C)C)cc34)n2C)C1 [Example 1, N-(1-acryloylazetidin-3-yl)-2-(((5-(tert-butyl)-6-chloro-1H-indazol-3-yl)amino)methyl)-1-methyl-1H-imidazole-5-carboxamide]",0.016 µM
3,"C=CC(=O)N1CC(NC(=O)c2c(C(F)(F)F)nc(CNc3n[nH]c4cc(Cl)c(C(C)(C)C)cc34)n2C)C1 [Example 25, N-(1-acryloylazetidin-3-yl)-2-(((5-(tert-butyl)-6-chloro-1H-indazol-3-yl)amino)methyl)-1-methyl-4-(trifluoromethyl)-1H-imidazole-5-carboxamide]",0.163 µM
4,"C=CC(=O)N1CC(N(C)C(=O)c2c(C)nc(CNc3n[nH]c4cc(Cl)c(C(C)(C)C)cc34)n2C)C1 [Example 49, N-(1-acryloylazetidin-3-yl)-2-(((5-(tert-butyl)-6-chloro-1H-indazol-3-yl)amino)methyl)-N,1,4-trimethyl-1H-imidazole-5-carboxamide]",0.208 µM
5,"C=CC(=O)N1CC(NC(=O)c2c(Cl)nc(CNc3n[nH]c4cc(Cl)c(C(C)(C)C)cc34)n2[C@@H]2CCN(CCOC)C2)C1 [Example 119, (R)-N-(1-acryloylazetidin-3-yl)-2-(((5-(tert-butyl)-6-chloro-1H-indazol-3-yl)amino)methyl)-4-chloro-1-(1-(2-methoxyethyl)pyrrolidin-3-yl)-1H-imidazole-5-carboxamide]",0.011 µM
6,"C=CC(=O)N1CC[C@@H](NC(=O)c2c(Cl)nc(CNc3n[nH]c4cc(Cl)c(C(C)(C)C)cc34)n2C)C1 [Example 73, (R)-N-(1-acryloylpyrrolidin-3-yl)-2-(((5-(tert-butyl)-6-chloro-1H-indazol-3-yl)amino)methyl)-4-chloro-1-methyl-1H-imidazole-5-carboxamide]",0.052 µM
7,"C=CC(=O)N1CC(NC(=O)c2c(C)nc(CNc3n[nH]c4cc(Cl)c(C(C)(C)C)cc34)n2C)C(F)(F)C1 (stereo not shown) [Example 53, N-(1-acryloyl-4,4-difluoropyrrolidin-3-yl)-2-(((5-(tert-butyl)-6-chloro-1H-indazol-3-yl)amino)methyl)-1,4-dimethyl-1H-imidazole-5-carboxamide]",0.042 µM
8,"C=CC(=O)N1C[C@@H](COC)[C@@H](NC(=O)c2c(C)nc(CNc3n[nH]c4cc(Cl)c(C(C)(C)C)cc34)n2C)C1 [Example 67, N-((3R,4R)-1-acryloyl-4-(methoxymethyl)pyrrolidin-3-yl)-2-(((5-(tert-butyl)-6-chloro-1H-indazol-3-yl)amino)methyl)-1,4-dimethyl-1H-imidazole-5-carboxamide]",0.024 µM
9,"C=CC(=O)N1CC(NC(=O)c2c(C)c(CNc3n[nH]c4cc(Cl)c(C(C)(C)C)cc34)nn2C)C1 [Example 10, N-(1-acryloylazetidin-3-yl)-3-(((5-(tert-butyl)-6-chloro-1H-indazol-3-yl)amino)methyl)-1,4-dimethyl-1H-pyrazole-5-carboxamide]",0.129 µM
10,"C=CC(=O)N1CC(NC(=O)c2c(Cl)nc(CNc3n[nH]c4cc(Cl)c(C(C)(C)C)cc34)n2C2CCN(C)CC2)C1 [Example 103, N-(1-acryloylazetidin-3-yl)-2-(((5-(tert-butyl)-6-chloro-1H-indazol-3-yl)amino)methyl)-4-chloro-1-(1-methylpiperidin-4-yl)-1H-imidazole-5-carboxamide]",0.005 µM
11,"C=CC(=O)N1CC(NC(=O)c2c(Cl)nc(CNc3n[nH]c4cc(Cl)c(C5(C(F)(F)F)CC5)cc34)n2C(C)C)C1 [Example 44, N-(1-acryloylazetidin-3-yl)-4-chloro-2-(((6-chloro-5-(-(trifluoromethyl)cyclopropyl)-1H-indazol-3-yl)amino)methyl)-1-isopropyl-1H-imidazole-5-carboxamide]",0.18 µM
12,"C=CC(=O)N1CC(NC(=O)c2c(Cl)nc(CNc3n[nH]c4cc(Cl)c(C(C)(C)C)cc34)n2[C@H]2C[C@H](C)CC[C@H]2C(C)C)C1 [Example 111, N-(1-acryloylazetidin-3-yl)-2-(((5-(tert-butyl)-6-chloro-1H-indazol-3-yl)amino)methyl)-4-chloro-1-((1S,2S,5R)-2-isopropyl-5-methylcyclohexyl)-JH-imidazole-5-carboxamide]",0.015 µM

# Second part, the compound after the results:
row,IC50,Structure (SMILES)
1,0.068 µM,"C=CC(=O)N1CC(NC(=O)c2c(C)nc(CNc3n[nH]c4ccc(C(C)(C)C)cc34)n2C(C)C)C1 [Example 42, N-(1-acryloylazetidin-3-yl)-2-(((5-(tert-butyl)-1H-indazol-3-yl)amino)methyl)-1-isopropyl-4-methyl-1H-imidazole-5-carboxamide]"
2,0.024 µM,"C=CC(=O)N1CC(NC(=O)c2c(Cl)nc(CNc3n[nH]c4cc(Cl)c(C(C)C)cc34)n2C(C)C)C1 [Example 45, N-(1-acryloylazetidin-3-yl)-4-chloro-2-(((6-chloro-5-isopropyl-1H-indazol-3-yl)amino)methyl)-1-isopropyl-1H-imidazole-5-carboxamide]"
3,0.209 µM,"CC#CC(=O)N1CC(NC(=O)c2c(C)nc(CNc3n[nH]c4cc(Cl)c(C(C)(C)C)cc34)n2C(C)C)C1 [Example 82, N-(1-(buty-2-noyl)azetidin-3-yl)-2-(((5-(tert-butyl)-6-chloro-1H-indazol-3-yl)amino)methyl)-1-isopropyl-4-methyl-1H-imidazole-5-carboxamide]"
4,0.024 µM,"C=CC(=O)N1C[C@@H](C)[C@@H](NC(=O)c2c(C)nc(CNc3n[nH]c4cc(Cl)c(C(C)(C)C)cc34)n2C)C1 [Example 55, N-((3R,4R)-1-acryloyl-4-methylpyrrolidin-3-yl)-2-(((5-(tert-butyl)-6-chloro-1H-indazol-3-yl)amino)methyl)-1,4-dimethyl-1H-imidazole-5-carboxamide]"
5,0.015 µM,"C=CC(=O)N1CC(NC(=O)c2c(C)nc(CNc3n[nH]c4cc(Cl)c(C(C)(C)C)cc34)n2C(C)C)C1 [Example 13, N-(1-acryloylazetidin-3-yl)-2-(((5-(tert-butyl)-6-chloro-1H-indazol-3-yl)amino)methyl)-1-isopropyl-4-methyl-1H-imidazole-5-carboxamide]"
6,0.01 µM,"[2H]C([2H])(Nc1n[nH]c2cc(Cl)c(C(C)(C)C)cc12)c1nc(C)c(C(=O)NC2CN(C(=O)C=C)C2)n1C [Example 5, N-(1-acryloylazetidin-3-yl)-2-(((5-(tert-butyl)-6-chloro-1H-indazol-3-yl)amino)methyl-d2)-1,4-dimethyl-1H-imidazole-5-carboxamide]"
7,0.019 µM,"[2H]C([2H])(Nc1n[nH]c2cc(Cl)c(C(C)(C)C)cc12)c1nc(C(F)F)c(C(=O)NC2CN(C(=O)C=C)C2)n1C(C)C [Example 36, N-(1-acryloylazetidin-3-yl)-2-(((5-(tert-butyl)-6-chloro-1H-indazol-3-yl)amino)methyl-d2)-4-(difluoromethyl)-1-isopropyl-1H-imidazole-5-carboxamide]"
